Reference: DBAASP
≈ marks a conversion by molar mass, not a printed value.

Assays:
Assay in all cases: ≥ marks a high value that may be exact or a test limit, other limits are often not marked, values filed in µg/mL are converted to µM
[1] = test system: Staphylococcus aureus ATCC 29213
[2] = test system: Escherichia coli ATCC 25922
[3] = test system: Bacillus subtilis ATCC 23857
[4] = test system: Staphylococcus epidermidis ATCC 12228
[5] = test system: Staphylococcus aureus ATCC 25923
[6] = test system: Escherichia coli ATCC 25726
[7] = test system: Micrococcus luteus
[8] = test system: Acinetobacter baumannii ATCC 19606
[9] = test system: Klebsiella pneumoniae ATCC 700603
[10] = test system: Enterococcus faecalis ATCC 29212
[11] = test system: Pseudomonas aeruginosa ATCC 27853
[12] = test system: Pseudomonas aeruginosa ATCC 9027
[13] = test system: Staphylococcus aureus
[14] = test system: Bacillus subtilis 168
[15] = test system: Candida albicans ATCC 2002
[16] = test system: Pseudomonas aeruginosa CMCCB 10104

Row | Structure (SMILES) | MIC [2] | MIC [3] | MIC [5] | other results
1 | CC[C@H](C)[C@H](N)C(=O)N[C@@H](CC(=O)O)C(=O)N[C@@H](Cc1c[nH]c2ccccc12)C(=O)N[C@@H](CCCCN)C(=O)N[C@@H](CCCCN)C(=O)N[C@@H](CC(C)C)C(=O)N[C@@H](CC(C)C)C(=O)N1CCC[C@H]1C(=O)N[C@@H](C)C(=O)N[C@@H](C)C(=O)N[C@@H](CCCCN)C(=O)N[C@@H](CCC(N)=O)C(=O)N[C@H](C(=O)N[C@@H](CC(C)C)C(N)=O)[C@@H](C)CC [IDWKKLLPAAKQIL] | 128 µM (≈ 209 µg/mL) | ≥ 32 µM |  | MIC [1]: 512 µM (≈ 838 µg/mL); MIC [4]: 256 µM (≈ 419 µg/mL)
2 | CC[C@H](C)[C@H](NC(=O)[C@H](C)NC(=O)[C@@H](NC(=O)[C@H](CCCCN)NC(=O)[C@H](C)NC(=O)[C@H](CC(C)C)NC(=O)[C@H](CCCCN)NC(=O)CNC(=O)[C@H](CC(C)C)NC(=O)[C@@H](NC(=O)[C@H](CO)NC(=O)CNC(=O)[C@H](C)NC(=O)[C@H](CCCCN)NC(=O)[C@H](CO)NC(=O)[C@H](C)NC(=O)[C@H](CCSC)NC(=O)CN)C(C)C)C(C)C)C(=O)NCC(=O)N[C@@H](C)C(=O)N[C@@H](CC(C)C)C(N)=O [GMASKAGSVLGKLAKVAIGAL] |  |  | 100 µM (≈ 194 µg/mL) | MIC [6]: 25 µM (≈ 48.5 µg/mL)
3 | CC[C@H](C)[C@H](NC(=O)CN)C(=O)N[C@@H](C)C(=O)N[C@@H](C)C(=O)NCC(=O)N[C@H](C(=O)N[C@H](C(=O)N[C@H](C(=O)N[C@@H](CCCCN)C(=O)N[C@H](C(=O)N[C@@H](CCCCN)C(=O)N[C@@H](CCCCN)C(N)=O)[C@@H](C)CC)[C@@H](C)CC)[C@@H](C)CC)[C@@H](C)CC [GIAAGIIIKIKK] | 32 µM (≈ 39.2 µg/mL) | ≥ 32 µM |  | 
4 | CC[C@H](C)[C@H](N)C(=O)N[C@H](C(=O)N[C@H](C(=O)N1CCC[C@H]1C(=O)N1CCC[C@H]1C(=O)N[C@H](C(=O)N[C@H](C(=O)N[C@@H](CCCCN)C(=O)N[C@@H](CC(=O)O)C(=O)N[C@H](C(=O)N[C@@H](CC(C)C)C(=O)N[C@@H](CCCCN)C(=O)N[C@@H](CCCCN)C(=O)N[C@@H](Cc1ccccc1)C(=O)N[C@@H](Cc1ccccc1)C(=O)N[C@@H](CCCCN)C(=O)NCC(=O)NCC(=O)N[C@H](C(=O)N[C@@H](C)C(=O)NCC(=O)N[C@H](C(=O)N[C@@H](CCSC)C(=O)NCC(=O)N[C@@H](CCCCN)C(=O)N[C@@H](CO)C(=O)N[C@@H](CCC(N)=O)C(=O)O)C(C)C)[C@@H](C)CC)[C@@H](C)O)C(C)C)[C@@H](C)CC)[C@@H](C)CC)[C@@H](C)O [ITIPPIVKDTLKKFFKGGIAGVMGKSQ] |  |  | 40 µM (≈ 115 µg/mL) | MIC [6]: ≥ 80 µM
5 | CC[C@H](C)[C@H](NC(=O)CNC(=O)[C@H](CO)NC(=O)[C@@H](NC(=O)[C@H](CC(C)C)NC(=O)[C@H](CCC(=O)O)NC(=O)[C@H](CO)NC(=O)[C@H](C)NC(=O)[C@H](CCCCN)NC(=O)[C@H](CC(=O)O)NC(=O)[C@H](CCCCN)NC(=O)[C@@H](NC(=O)[C@H](CCCCN)NC(=O)[C@H](CCC(N)=O)NC(=O)[C@H](Cc1c[nH]c2ccccc12)NC(=O)[C@H](CC(C)C)NC(=O)CN)[C@@H](C)CC)C(C)C)C(=O)N[C@H](C(=O)N[C@@H](CCC(=O)O)C(=O)NCC(=O)N[C@H](C(=O)N[C@@H](CCCCN)C(N)=O)C(C)C)C(C)C [GLWQKIKDKASELVSGIVEGVK] |  |  |  | MIC [7]: 0.168 µM (≈ 0.4 µg/mL)
6 | CC[C@H](C)[C@H](NC(=O)[C@H](CCCCN)NC(=O)[C@H](CO)NC(=O)[C@H](C)NC(=O)[C@H](Cc1c[nH]c2ccccc12)NC(=O)CN)C(=O)NCC(=O)N[C@@H](CCC(N)=O)C(=O)N[C@@H](C)C(=O)N[C@@H](CC(C)C)C(=O)NCC(=O)N[C@@H](CCCCN)C(=O)N[C@H](C(=O)N[C@@H](C)C(=O)N[C@@H](CCCCN)C(=O)N[C@H](C(=O)NCC(=O)N[C@@H](CC(C)C)C(=O)N[C@@H](CCC(N)=O)C(=O)N[C@@H](CCC(N)=O)C(=O)N[C@@H](Cc1ccccc1)C(=O)N[C@H](C(=O)N[C@@H](CCC(N)=O)C(=O)N1CCC[C@H]1C(=O)N[C@@H](CCCCN)C(=O)O)[C@@H](C)CC)C(C)C)C(C)C [GWASKIGQALGKVAKVGLQQFIQPK] |  |  | > 100 µM | MIC [6]: 12.5 µM (≈ 33.2 µg/mL)
7 | CC[C@H](C)[C@H](NC(=O)CN)C(=O)N[C@H](C(=O)N[C@@H](C)C(=O)N[C@@H](C)C(=O)N[C@H](C(=O)N[C@H](C(=O)N[C@H](C(=O)N[C@@H](CCCCN)C(=O)N[C@H](C(=O)N[C@@H](CCCCN)C(=O)N[C@@H](CCCCN)C(N)=O)[C@@H](C)CC)[C@@H](C)CC)[C@@H](C)CC)[C@@H](C)CC)[C@@H](C)CC [GIIAAIIIKIKK] | > 128 µM | 16 µM (≈ 20.5 µg/mL) |  | 
8 | CC[C@H](C)[C@H](N)C(=O)N[C@@H](CC(=O)O)C(=O)N[C@@H](Cc1c[nH]c2ccccc12)C(=O)N[C@@H](CCCCN)C(=O)N[C@@H](CCCCN)C(=O)N[C@@H](CC(C)C)C(=O)N1CCC[C@H]1C(=O)N[C@@H](CC(=O)O)C(=O)N[C@@H](C)C(=O)N[C@@H](C)C(=O)N[C@@H](CCCCN)C(=O)N[C@@H](CCC(N)=O)C(=O)N[C@H](C(=O)N[C@@H](CC(C)C)C(N)=O)[C@@H](C)CC [IDWKKLPDAAKQIL] | 1020 µM (≈ 1680 µg/mL) | ≥ 512 µM |  | MIC [1]: > 1020 µM; MIC [4]: > 1020 µM
9 | CC(C)C[C@H](NC(=O)[C@H](CC(C)C)NC(=O)[C@@H](NC(=O)[C@H](CCCCN)NC(=O)[C@H](Cc1ccccc1)NC(=O)[C@H](CCCN=C(N)N)NC(=O)[C@H](CCCCN)NC(=O)[C@H](CC(C)C)NC(=O)[C@H](CC(C)C)NC(=O)CN)[C@@H](C)O)C(N)=O [GLLKRFKTLL] | 64 µM (≈ 76 µg/mL) | ≥ 32 µM | 128 µM (≈ 152 µg/mL) | MIC [8]: 256 µM (≈ 304 µg/mL); MIC [9]: 128 µM (≈ 152 µg/mL); MIC [10]: 256 µM (≈ 304 µg/mL); MIC [11]: 16 µM (≈ 19 µg/mL); MIC [4]: 16 µM (≈ 19 µg/mL)
10 | CC[C@H](C)[C@H](NC(=O)[C@H](C)NC(=O)[C@H](CCCCN)NC(=O)[C@H](C)NC(=O)[C@@H](NC(=O)[C@H](C)NC(=O)[C@H](CC(C)C)NC(=O)[C@H](CC(C)C)NC(=O)[C@H](C)NC(=O)[C@H](CCCCN)NC(=O)[C@H](CC(C)C)NC(=O)[C@H](CC(N)=O)NC(=O)[C@@H](N)CC(C)C)C(C)C)C(=O)N[C@@H](CC(C)C)C(N)=O [LNLKALLAVAKAIL] | 8 µM (≈ 11.6 µg/mL) | 8 µM (≈ 11.6 µg/mL) | 4 µM (≈ 5.8 µg/mL) | MIC [9]: 16 µM (≈ 23.2 µg/mL); MIC [12]: 16 µM (≈ 23.2 µg/mL)
11 | CSCC[C@H](NC(=O)[C@H](C)NC(=O)[C@H](CCCCN)NC(=O)[C@H](CCCN=C(N)N)NC(=O)[C@H](C)NC(=O)[C@H](CCCN=C(N)N)NC(=O)[C@H](CCC(=O)O)NC(=O)[C@@H](NC(=O)[C@H](CCCCN)NC(=O)CNC(=O)CNC(=O)CNC(=O)[C@H](Cc1ccccc1)NC(=O)[C@H](CCCCN)NC(=O)[C@@H](N)CCCCN)[C@@H](C)O)C(=O)N[C@@H](C)C(=O)N[C@H](C(=O)N[C@@H](CCC(=O)O)C(=O)O)C(C)C [KKFGGGKTERARKAMAVE] | 31.8 µM (≈ 62.5 µg/mL) |  |  | MIC [7]: 31.8 µM (≈ 62.5 µg/mL); MIC [13]: 7.94 µM (≈ 15.6 µg/mL); MIC [14]: 7.94 µM (≈ 15.6 µg/mL)
12 | CC[C@H](C)[C@H](NC(=O)[C@H](CC(C)C)NC(=O)[C@H](CC(C)C)NC(=O)[C@H](CC(=O)O)NC(=O)[C@H](CCCCN)NC(=O)[C@@H](NC(=O)[C@@H](NC(=O)CNC(=O)[C@H](CCSC)NC(=O)[C@@H](NC(=O)[C@@H](N)CO)C(C)C)[C@@H](C)O)C(C)C)C(=O)NCC(=O)N[C@@H](C)C(=O)NCC(=O)N[C@@H](CCCCN)C(=O)N[C@@H](CO)C(=O)N[C@@H](C)C(=O)N[C@@H](C)C(=O)N[C@@H](CCC(N)=O)C(=O)N[C@@H](CO)C(=O)N[C@H](C(=O)N[C@@H](CC(C)C)C(=O)N[C@@H](CCCCN)C(=O)N[C@@H](CO)C(=O)N[C@@H](CC(C)C)C(=O)N[C@@H](CO)C(=O)N[C@H]1CSSC[C@@H](C(=O)O)NC(=O)[C@H](CC(=O)O)NC(=O)[C@H](CC(N)=O)NC(=O)[C@H](CO)NC(=O)[C@H]([C@@H](C)CC)NC(=O)[C@H](CCCCN)NC1=O)C(C)C [SVMGTVKDLLIGAGKSAAQSVLKSLSCKISNDC] | 1.41 µM (≈ 4.7 µg/mL) |  | 2.83 µM (≈ 9.39 µg/mL) | MIC [15]: 1.41 µM (≈ 4.7 µg/mL); MIC [16]: 1.41 µM (≈ 4.7 µg/mL)
13 | C[C@@H](O)[C@H](NC(=O)[C@H](CO)NC(=O)[C@H](Cc1ccccc1)NC(=O)[C@@H](N)Cc1ccccc1)C(=O)N[C@@H](CO)C(=O)N[C@H]1CSSC[C@@H](C(=O)O)NC(=O)CNC(=O)[C@H](CO)NC(=O)[C@H](CCCN=C(N)N)NC1=O [FFSTSCRSGC] | > 91.4 µM |  | > 91.4 µM | MIC [15]: ≥ 91.4 µM; MIC [16]: ≥ 91.4 µM
